Measurements as given in patent US20110081429A1, “COMPOSITION FOR EXTERNAL USE” (priority 2008, published 2011).
Entries after “also recorded” stand apart in the source; their conditions may differ.

System: IGF-1 secretion in the skin
Experiment: IGF-1 concentration in the skin after application of essential oil and/or AMP (Experimental Example 1)
Type: in vivo, hairless mice (Hos: HR-1)
Conditions: hairless mice, 400 μl on back skin (3 cm×5 cm), 30 minutes after the application; FIG. 1a-1c
Experimental: In order to examine how the effect of essential oils on the amount of IGF-1 secretion in the skin is affected by AMP, the following compositions containing an essential oil and AMP (Examples 1 to 3 and Comparative Examples 1 to 5) were prepared by a standard method. The pH of each composition was adjusted with NaOH such that the pH ranged from 6.5 to 7.0.
400 μl of a test solution was applied to the skin on the back (3 cm×5 cm) of hairless mice (Hos: HR-1, Japan SLC, Inc., female, 6 to 8 weeks age). 30 minutes after the application, the skin was extracted and frozen-crushed. Then, the IGF-1 concentration in the skin was measured using Quantikine (registered trademark) Mouse IGF-1 Immunoassay (R&D Systems, Inc.).
The composition shown in Table 1 was used as a test solution.
The secreted IGF-1 concentration was measured according to the method described in Experiment 1-1. The composition shown in Table 1 above was used as a test solution.

Q: Which “stimulatory effect on IGF-1 secretion (IGF-1 concentration in the skin)” value does the source give for `Nc1ncnc2c1ncn2[C@@H]1O[C@H](COP(=O)(O)O)[C@@H](O)[C@H]1O` [AMP, adenosine-5′-monophosphate] here?
A: did not produce a stimulatory effect on IGF-1 secretion when used alone; also recorded: neither AMP or Scotch pine needle oil stimulated IGF-1 secretion when used alone; also recorded: did not produce a sufficient stimulatory effect on IGF-1 secretion
